Assays:
[1] = molecular target: T1, acid-β-glucocerebrosidase (ABG) (Homo sapiens, UniProt P04062); test: Simultaneous detection of multiple enzyme activity in dried blood spots by MS/MS (ABG); format: biochemical; conditions: Compounds 1 and 7 used simultaneously, substrates 100 μmol/L, dried blood disk, 15 to 24 hours at 37° Celsius
T1 construct: from tissue; host or cells: dried blood spots from adult human venous blood
T1 sequence (P04062 40-536): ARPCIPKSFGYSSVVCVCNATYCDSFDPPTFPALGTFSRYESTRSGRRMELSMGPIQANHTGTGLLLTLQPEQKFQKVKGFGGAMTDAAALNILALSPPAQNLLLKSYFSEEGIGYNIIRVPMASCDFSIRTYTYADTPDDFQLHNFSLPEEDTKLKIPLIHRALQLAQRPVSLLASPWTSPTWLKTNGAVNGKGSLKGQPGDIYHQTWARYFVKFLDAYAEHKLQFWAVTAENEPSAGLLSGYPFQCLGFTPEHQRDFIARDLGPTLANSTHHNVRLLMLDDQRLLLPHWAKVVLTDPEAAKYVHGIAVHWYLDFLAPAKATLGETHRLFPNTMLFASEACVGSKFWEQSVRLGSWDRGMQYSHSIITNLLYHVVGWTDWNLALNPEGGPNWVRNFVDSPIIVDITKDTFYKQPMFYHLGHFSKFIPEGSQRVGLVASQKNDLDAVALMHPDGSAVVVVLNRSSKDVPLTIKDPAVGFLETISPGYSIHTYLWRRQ
Description: The substrates of Compounds 1 and 7 are used simultaneously to detect the presence of acid-β-glucocerebrosidase (ABG) and galactocerebroside-β-galactosidase (GALC) respectively. Blood is obtained by venipuncture from consenting adult humans and blotted on filter paper. For each sample, a disk of 3 mm diameter is punched from the areas of dried blood into a well of a 96-well microtiter plate. The blood disk is then incubated directly with an assay solution containing substrates at a final concentration of 100 μmol/L and corresponding internal standards at a final concentration of 1 μmol/L. To the assay solution, a final concentration of 0.5 mol/L sodium acetate with sodium taurocholate buffer is also added (30 μl final assay volume). The assay mixture containing the blood disk is incubated for 15 to 24 hours at 37° Celsius with orbital shaking (150 rpm) in a thermostatic air shaker. After the incubation period, a 100 μl aliquot of 50:50 methanol/ethyl acetate is added to each tube or well to terminate the enzymatic reaction. The reaction is then supplemented with 400 μl HPLC grade ethyl acetate and 200 μl water. […] For mass spectrometry analysis, the electrospray source is operated in positive mode, and the ions are detected in parent-ion scan mode. The amount of enzymatic product is calculated from the ion abundance ratio of the product to the internal standard minus that of a blank.

[2] = molecular target: T1, acid-β-glucocerebrosidase (ABG); test: Detection of enzyme activity in dried blood spots by mass spectrometry (ABG substrate); format: biochemical; conditions: FIG. 6, dried blood disk, substrate 500 μmol/L, 15 to 24 hours at 37° Celsius
Description: The substrates of Compounds 1 and 7 are used to detect the presence of acid-β-glucocerebrosidase (ABG) and galactocerebroside-β-galactosidase (GALC) respectively. Blood is obtained by venipuncture from consenting adult humans and blotted on filter paper. For each sample, a disk of 3 mm diameter is punched from the areas of dried blood into a well of a 96-well microtiter plate. The blood disk is then incubated directly with an assay solution containing substrates at a final concentration of 500 μmol/L and corresponding internal standards at a final concentration of 5 μmol/L. To the assay solution, a final concentration of 0.5 mol/L sodium acetate buffer with sodium taurocholate is also added. The assay mixture containing the blood disk is incubated for 15 to 24 hours at 37° Celsius with orbital shaking (150 rpm) in a thermostatic air shaker. After the incubation period, an aliquot of pure methanol is added to each tube or well to terminate the enzymatic reaction. Before going into the mass spectrometer, the incubated reaction mixture is diluted with pure methanol. For the mass spectrometry analysis, the electrospray source is operated in positive mode, and the ions are detected in parent-ion scan mode. The amount of enzymatic product is calculated from the ion abundance ratio of the product to the internal standard minus that of a blank.

Compound: CCCCCCCCCCCCC/C=C/C(O)C(CO[C@@H]1OC(CO)[C@@H](O)C(O)C1O)NC(=O)CCCC (some centres unmarked) [Compound 1]
- detection of ABG (enzymatic product by MS/MS) [1]: Detection of both ABG and GALC is achieved
- improvement in product detection over a similar compound substituting the C5 amido for a C12 amido [2]: 2 fold
